Reference: PubChem BioAssay AID248 (DTP/NCI, 2004)
Values joined by “and” are separate entries in the source; they are usually repeats but may differ in a detail not shown here. Equal values may be shown once. Toxic doses and inconclusive results are not listed. Cut-off read from the data, not from the text of the source: active = T/C of 150% or more; inactive = T/C below 125%.

System: L1210 leukemia ip in BDF1 mice, survival T/C
Assay: NCI In Vivo Anticancer Drug Screen. Data for tumor model L1210 Leukemia (intraperitoneal) in B6D2F1 (BDF1) mice
Conditions: endpoint: mean survival time, higher = longer survival
How it was run: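 Tumor was transplanted into mice, which were then dosed with test compound or vehicle alone. Survival was recorded for each group, and the treated figure was expressed relative to the control figure.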

[1] = dose: 100.0 mg/kg/injection, schedule: Q01DX009 (ip), vehicle: saline
[2] = dose: 200.0 mg/kg/injection, schedule: Q01DX009 (ip), vehicle: saline
[3] = dose: 12.5 mg/kg/injection, schedule: Q01DX009 (ip), vehicle: Klucel (hydroxypropylcellulose) (HPC)
[4] = dose: 25.0 mg/kg/injection, schedule: Q01DX009 (ip), vehicle: Klucel (hydroxypropylcellulose) (HPC)
[5] = dose: 50.0 mg/kg/injection, schedule: Q01DX009 (ip), vehicle: Klucel (hydroxypropylcellulose) (HPC)
[6] = dose: 100.0 mg/kg/injection, schedule: Q04DX003 (ip), vehicle: saline
[7] = dose: 200.0 mg/kg/injection, schedule: Q04DX003 (ip), vehicle: saline
[8] = dose: 400.0 mg/kg/injection, schedule: Q04DX003 (ip), vehicle: saline
[9] = dose: 100.0 mg/kg/injection, schedule: Q01DX009 (ip), vehicle: Klucel (hydroxypropylcellulose) (HPC)
[10] = dose: 200.0 mg/kg/injection, schedule: Q01DX009 (ip), vehicle: Klucel (hydroxypropylcellulose) (HPC)
[11] = dose: 400.0 mg/kg/injection, schedule: Q01DX009 (ip), vehicle: Klucel (hydroxypropylcellulose) (HPC)
[12] = dose: 100.0 mg/kg/injection, schedule: Q04DX003 (ip), vehicle: Klucel (hydroxypropylcellulose) (HPC)
[13] = dose: 200.0 mg/kg/injection, schedule: Q04DX003 (ip), vehicle: Klucel (hydroxypropylcellulose) (HPC)
[14] = dose: 400.0 mg/kg/injection, schedule: Q04DX003 (ip), vehicle: Klucel (hydroxypropylcellulose) (HPC)
[15] = dose: 100.0 mg/kg/injection, schedule: Q04DX002 (ip), vehicle: saline with Tween-80
[16] = dose: 200.0 mg/kg/injection, schedule: Q04DX002 (ip), vehicle: saline with Tween-80

Measured: T/C

CC(=O)N1CCCCC1
inactive: dose: 50.0 mg/kg/injection, schedule: Q01DX001 (ip), vehicle: carboxymethylcellulose (CMC) 97 % of control | dose: 100.0 mg/kg/injection, schedule: Q01DX001 (ip), vehicle: carboxymethylcellulose (CMC) 94 % of control | [1] 100 % of control | dose: 200.0 mg/kg/injection, schedule: Q01DX001 (ip), vehicle: carboxymethylcellulose (CMC) 100 % of control | [2] 98 % of control

CCC(Cl)COP(=O)(CC(Cl)CC)OC(C)P(=O)(OCC(Cl)CC)OCC(Cl)CC (stereo unspecified)
inactive: dose: 100.0 mg/kg/injection, schedule: Q01DX001 (ip), vehicle: Klucel (hydroxypropylcellulose) (HPC) 101 % of control | dose: 200.0 mg/kg/injection, schedule: Q01DX001 (ip), vehicle: Klucel (hydroxypropylcellulose) (HPC) 121 % of control | dose: 400.0 mg/kg/injection, schedule: Q01DX001 (ip), vehicle: Klucel (hydroxypropylcellulose) (HPC) 97 % of control

OCCOc1nc(Cl)nc(Cl)c1Cl (tested in a mixture with another compound)
inactive: [3] 110 % of control | [4] 96 % of control | [5] 100 % of control and 91 % of control

CC(Br)C1(c2cccc([N+](=O)[O-])c2)OCCO1 (stereo unspecified)
inactive: [6] 105 % of control | [7] 100 % of control | [8] 108 % of control

O=c1[nH]cnc2nc(-c3cccc([N+](=O)[O-])c3)[nH]c12
inactive: dose: 100.0 mg/kg/injection, schedule: Q04DX003 (ip), vehicle: gum acacia 102 % of control | dose: 200.0 mg/kg/injection, schedule: Q04DX003 (ip), vehicle: gum acacia 92 % of control | dose: 400.0 mg/kg/injection, schedule: Q04DX003 (ip), vehicle: gum acacia 96 % of control

CCOC(=O)c1cc(OC(C)=O)c2c(ccc3ccccc32)c1C
inactive: [9] 98 % of control | [10] 88 % of control | [11] 91 % of control

COP1(=O)OCC(C)CO1 (stereo unspecified)
inactive: dose: 100.0 mg/kg/injection, schedule: Q01DX001 (ip), vehicle: saline 102 % of control | dose: 200.0 mg/kg/injection, schedule: Q01DX001 (ip), vehicle: saline 93 % of control | dose: 400.0 mg/kg/injection, schedule: Q01DX001 (ip), vehicle: saline 98 % of control

O=c1[nH]c(=O)n(CCCc2ccccc2)cc1-c1ccccc1
inactive: dose: 400.0 mg/kg/injection, schedule: Q01DX001 (ip), vehicle: carboxymethylcellulose (CMC) 90 % of control

Cc1ccc(-c2cc(-c3ccccc3)no2)cc1
inactive: [9] 97 % of control | [12] 102 % of control | [10] 95 % of control | [13] 102 % of control | [11] 95 % of control | [14] 93 % of control

CCC(C)CNCCO (stereo unspecified)
inactive: dose: 50.0 mg/kg/injection, schedule: Q01DX009 (ip), vehicle: saline 92 % of control | [1] 100 % of control | [2] 103 % of control

CCC(C)N=Cc1ccccc1O.CCC(C)N=Cc1ccccc1O.[Cu] (stereo unspecified)
inactive: dose: 9.5 mg/kg/injection, schedule: Q01DX001 (ip), vehicle: other 100 % of control | dose: 19.0 mg/kg/injection, schedule: Q01DX001 (ip), vehicle: other 107 % of control | dose: 38.0 mg/kg/injection, schedule: Q01DX001 (ip), vehicle: other 100 % of control

CCCCN(CCCC)CCP(=O)(OCC)OCC
inactive: [15] 97 % of control | [16] 105 % of control

CCOC(=O)Cn1ccc(=O)[nH]c1=O
inactive: [6] 98 % of control | [7] 96 % of control | [8] 102 % of control

COc1ccc(Nc2ccccc2C(=O)NN)cc1
inactive: [5] 102 % of control | [9] 96 % of control | [12] 94 % of control | [13] 105 % of control

CC1(C)OC2OC(COS(C)(=O)=O)C(O)C2O1 (stereo unspecified)
inactive: [3] 100 % of control | [4] 105 % of control | [5] 105 % of control | dose: 50.0 mg/kg/injection, schedule: Q04DX003 (ip), vehicle: Klucel (hydroxypropylcellulose) (HPC) 92 % of control | [9] 103 % of control | [12] 100 % of control | [13] 91 % of control | [14] 102 % of control

C=C1C(=O)OCC2C(C(=O)O)=CC3C(C)C(C)=CC123 (stereo unspecified)
inactive: dose: 20.0 mg/kg/injection, schedule: Q01DX009 (ip), vehicle: saline with Tween-80 108 % of control | dose: 40.0 mg/kg/injection, schedule: Q01DX009 (ip), vehicle: saline with Tween-80 111 % of control

CCc1cccc(OS(=O)(=O)c2ccc([N+](=O)[O-])cc2)c1
inactive: [4] 95 % of control | [9] 92 % of control

COc1ccc(OC(=O)Nc2ccc(OC)cc2OC)cc1
inactive: [9] 97 % of control | [10] 104 % of control | [11] 96 % of control

CCCCCCCCCCCCSCCNC(=O)CCl
inactive: [9] 87 % of control | [12] 95 % of control | [10] 92 % of control | [13] 92 % of control | [11] 88 % of control | [14] 92 % of control

NNc1n[nH]c(=O)n1N
inactive: [12] 113 % of control | [13] 100 % of control

CCOC(=O)NCC(C)(CCN1CCCCC1)c1cccc2ccccc12 (stereo unspecified)
inactive: dose: 6.25 mg/kg/injection, schedule: Q04DX003 (ip), vehicle: saline with Tween-80 104 % of control | dose: 12.5 mg/kg/injection, schedule: Q04DX003 (ip), vehicle: saline with Tween-80 98 % of control | dose: 25.0 mg/kg/injection, schedule: Q04DX003 (ip), vehicle: saline with Tween-80 97 % of control

CC(C)(C)NC(=O)NCc1cccc2ccccc12
inactive: dose: 100.0 mg/kg/injection, schedule: Q01DX009 (ip), vehicle: other 103 % of control | dose: 200.0 mg/kg/injection, schedule: Q01DX009 (ip), vehicle: other 95 % of control | dose: 400.0 mg/kg/injection, schedule: Q01DX009 (ip), vehicle: other 90 % of control

COc1ccc(NC(=O)Nc2cccc(Cl)c2C)c(OC)c1
inactive: dose: 100.0 mg/kg/injection, schedule: Q01DX001 (ip), vehicle: saline with Tween-80 98 % of control | dose: 100.0 mg/kg/injection, schedule: Q01DX009 (ip), vehicle: saline with Tween-80 93 % of control and 89 % of control | [15] 93 % of control and 92 % of control | dose: 100.0 mg/kg/injection, schedule: Q04DX003 (ip), vehicle: saline with Tween-80 86 % of control | dose: 200.0 mg/kg/injection, schedule: Q01DX001 (ip), vehicle: saline with Tween-80 102 % of control | dose: 200.0 mg/kg/injection, schedule: Q01DX009 (ip), vehicle: saline with Tween-80 94 % of control and 86 % of control | [16] 104 % of control and 90 % of control | dose: 200.0 mg/kg/injection, schedule: Q04DX003 (ip), vehicle: saline with Tween-80 86 % of control | dose: 400.0 mg/kg/injection, schedule: Q01DX001 (ip), vehicle: saline with Tween-80 100 % of control | dose: 400.0 mg/kg/injection, schedule: Q01DX009 (ip), vehicle: saline with Tween-80 97 % of control and 110 % of control | dose: 400.0 mg/kg/injection, schedule: Q04DX002 (ip), vehicle: saline with Tween-80 90 % of control | dose: 400.0 mg/kg/injection, schedule: Q04DX003 (ip), vehicle: saline with Tween-80 91 % of control

O=[N+]([O-])/C=C/c1ccc(Cl)cc1
inactive: [4] 97 % of control | [5] 103 % of control

CCCC[n+]1cccc(C(N)=O)c1
inactive: [6] 100 % of control | [7] 100 % of control | [8] 89 % of control
